Assay results as given in patent US20090030055A1, “PKC activation as a means for enhancing s[sequence] secretion and improving cognition using bryostatin type compounds” (priority 2002, published 2009).
“Also recorded” adds a separate entry of the source. Where two headings read alike, the source gives them in different places.

Experiments:
PKC [1] = conditions: cited from earlier work
[2] = system: sAPP secretion, AD fibroblasts; conditions: benzolactam-treated cells; cited from earlier work
[3] = system: Transgenic mice carrying the V7171 mutation; experiment: Transgenic mice carrying the V7171 APP mutation, APP species in brain and health; format: in vivo; conditions: for deaths: 5-6 months old animals
Protocol: Transgenic mice carrying the V7171 mutation were treated with BL (1 mg/kg, i.p.; daily) from […] of age (after weaning) for 17 weeks (n=4). The control group (n=4) received vehicle alone (Tween 20 1%, DMSO 25%, 74% PBS). Another experimental group consisted of 5-6 months old animals treated for 7 weeks. Subgroups of these animals were treated with BL 1 mg/kg, daily (n=5); BL 10 mg/kg, daily (n=3; due to two deaths); BL 10 mg/kg, weekly (n=4; one death), LQ12 10 mg/kg, daily (n=5); and LQ12 10 mg/kg, weekly (n=5). Five additional animals received vehicle alone for the same period. After completion of the treatment, animals were euthanized according to K.U.L. (Belgium) guidelines. Brains were removed and prepared for biochemical analyses of APP species.
Immunoblot analysis. The biochemical analysis of intermediates of APP metabolism has been described elsewhere by Dewachter et al. (Aging increased amyloid peptide and caused amyloid plaques in brain of old APP/V7171 transgenic mice by a different mechanism than mutant presenilinl. J. Neurosci. 2000; 20:6452-8.). Briefly, brains were homogenized in 6.5 vol. of ice-cold buffer containing 20 mm Tris-HCl, pH 8.5, and a mixture of proteinase inhibitors (Roche, Darmstadt, Germany). After centrifugation at 135,000×g at 4° C. for 1 hr, the supernatant was centrifuged again for 2 hr at 200,000×g before analysis of soluble amyloid peptides by specified ELISA. The pellets from the first centrifugation were resuspended in TBS containing 2% Triton X-100, 2% Nonidet P40 and proteinase inhibitors and centrifuged at 100.000×g at 4° C. for 1 hr. This protein fraction was used for analysis of membrane-bound APP. Western blotting of membrane bound APP was performed on this protein fraction containing membrane-bound proteins, with monoclonal antibody 8E5. Total secreted APP and a-secretase cleaved secreted APP-a were detected by Western blotting analysis on the supernatant of the first centrifugation, with monoclonal antibody 8E5 and monoclonal antibody JRF14, respectively. Proteins were denatured and reduced in sample buffer containing a final concentration of 2% SDS, 1% 2-ME and separated on 8% TRIS Glycine gels (Novex, San Diego, Calif.). After incubation with appropriate secondary antibodies, all Western blots were developed with the ECL detection system and photographically recorded. Application of a series of diluted sample allowed quantitation. Densitometric scanning of films and normalization were performed using a flatbed optical density scanner and dedicated software for analysis and measurement (Image Master; Pharmacia, Uppsala, Sweden).
ELISA of amyloid peptides. Protein extracts were applied on reversed-phase columns (C18-Sep-pack cartridges; Waters Corporation, Milford, Mass.) and washed with increasing concentrations of acetonitrile (5, 25, and 50%) containing 0.1% trifluoroacetic acid. The last fraction contained the amyloid peptides and was dried in vacuo overnight and dissolved for measurements in ELISA. Sandwich ELISA for human […] peptides was performed using the capture antiserum JRF/cAβ40/10 and 21F12, respectively, and they were developed with monoclonal antibodies JRFcAβ/tot/14 hrpo and 3D6, respectively (Vanderstichele H, Van Kerschaver E, Hese C, Davidsson P, Buyse M A, Andreansen N, Minthon L, Wallin A, Blennow K, Vanmechelen E. Standardization of measurements of beta-amyloid (1-42) in cerebrospinal fluid and plasma. Amyloid 2000; 7: 245-258).
Standard general health assessment and open field were conducted in all animals prior to the biochemical assessments. In addition, a semi-quantitative ad hoc score was devised to measure abdominal contractions that followed the injections (+=weak, <2 min; […]).

[4] = system: sAPP secretion, control fibroblasts; conditions: cited from earlier work
[5] = system: sAPPα secretion, AD cell line AG06848; experiment: sAPPα secretion immunoblot, AD fibroblasts; format: cell-based, human
Protocol: Cultured skin fibroblasts were obtained from the Coriell Cell Repositories and grown using the general guidelines established for their culture with slight modifications (Cristofalo & Carpentier, 1988; Hirashima et al., 1996). The culture medium in which cells were grown was Dulbecco's modified Eagle's medium (GIBCO) supplemented with 10% fetal calf serum (Biofluids, Inc.). Fibroblasts from control cell lines (AC), cases AG07141 and AG06241, and a familial AD (FAD) case (AG06848) were utilized.
Cells grown to confluence in 6 cm Petri dishes for 5-7 days. On the day of the experiment, medium was replaced with DMEM without serum and left undisturbed for 2 h. Upon completion of the 2 hour serum deprivation; treatment was achieved by direct application to the medium of Bryo, BL and DMSO at the appropriate concentrations. (0.1 and 0.01 nM for bryostatin; 0.1 nM, 0.1 μM, and 1 μM BL). DMSO was less than 1% in all cases. In most cases, medium was collected and processed after 3 hours of treatment for sAPP secretion. Other time points were also used to establish a time course of secretion.
sAPP—Determinations/Measurements of sAPPα
The concentration of secreted APP was measured using conventional immunoblotting techniques, with minor modifications the protocol. Precipitated protein extracts from each dish/treatment were loaded to freshly prepared 10% acrylamide Tris-HCl minigels and separated by SDPAGE. The volume of sample loaded was corrected for total cell protein per dish. Proteins were then electrophoretically transferred to PVDF membranes. Membranes were saturated with 5% non-fat dry milk to block non-specific binding. Blocked membranes were incubated overnight at 4° C. with the commercially available antibody 6E10 (1:500), which recognizes sAPP-alpha in the conditioned medium (SENETEK). After washing, the membranes were incubated at room temperature with horseradish peroxidase conjugated anti-mouse IgG secondary antibody (Jackson's Laboratories). The signal was then detected using enhanced chemiluminescence followed by exposure of Hyperfilm ECL (Amersham). The band intensities were quantified by densitometry using a BioRad GS-800 calibrated scanning densitometer and Multianalyst software (BioRad).

PKCε = molecular target: T1, PKCε (Homo sapiens, UniProt Q02156); conditions: cited from earlier work
T1 sequence (Q02156 1-737): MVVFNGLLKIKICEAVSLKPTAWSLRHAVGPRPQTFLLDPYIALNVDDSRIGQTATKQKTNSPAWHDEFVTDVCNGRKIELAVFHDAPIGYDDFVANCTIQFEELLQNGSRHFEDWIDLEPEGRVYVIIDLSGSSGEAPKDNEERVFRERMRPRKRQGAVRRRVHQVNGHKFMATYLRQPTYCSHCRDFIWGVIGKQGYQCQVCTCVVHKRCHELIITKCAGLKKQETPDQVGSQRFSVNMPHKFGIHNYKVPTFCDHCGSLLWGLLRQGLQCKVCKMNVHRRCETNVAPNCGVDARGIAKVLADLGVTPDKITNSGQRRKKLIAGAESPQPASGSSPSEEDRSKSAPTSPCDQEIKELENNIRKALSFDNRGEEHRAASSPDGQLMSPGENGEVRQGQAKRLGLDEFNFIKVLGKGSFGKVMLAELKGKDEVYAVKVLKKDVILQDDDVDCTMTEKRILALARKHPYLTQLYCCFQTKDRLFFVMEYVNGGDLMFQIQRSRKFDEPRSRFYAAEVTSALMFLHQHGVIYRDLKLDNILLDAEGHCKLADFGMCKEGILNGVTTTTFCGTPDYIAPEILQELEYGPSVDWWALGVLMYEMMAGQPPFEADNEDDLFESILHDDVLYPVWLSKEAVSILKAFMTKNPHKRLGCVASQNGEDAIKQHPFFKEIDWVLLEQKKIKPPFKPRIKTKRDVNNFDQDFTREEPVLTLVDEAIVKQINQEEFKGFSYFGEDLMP

PKC [6] = conditions: competes with [3H]phorbol dibutyrate; read-out: Ki for binding; cited from earlier work
[7] = system: squamous cell carcinoma and melanoma; conditions: used topically; cited from earlier work
NCI 60 cell line screen = conditions: cited from earlier work
protein kinase C = conditions: (−)-enantiomer; cited from earlier work
[8] = 1 mg/kg i.p. daily from 3 weeks of age for 17 weeks
[9] = 1 mg/kg i.p. daily from 3 weeks of age for 17 weeks, vs vehicle
[10] = 6 months old animals, 7 weeks, 10 mg/kg daily
[11] = 6 months old animals, 7 weeks, 10 mg/kg weekly
[12] = A-ring bryologs, read-out: affinity for PKC

In the case of `CCCCCCCC(=O)O[C@H]1/C(=C/C(=O)OC)C[C@H]2C[C@H](CO)OC(=O)C[C@H](O)CCOCC[C@@H]3CCO[C@H](/C=C/C(C)(C)[C@]1(O)O2)O3` [Analog 2], the “affinity for PKC, in words” value (PKC [1]) is listed as “high affinity” and the Ki (PKC [1]; read-out: PKC Affin) is listed as 6.5 nM.

For `CCCCCCCCC#Cc1ccc2c(c1)C[C@@H](CO)NC(=O)[C@H](C(C)C)N2C` [BL, benzolactam], the “sAPP secretion in AD cells compared to control fibroblasts” value [2] is given as “slightly higher”, the APP membrane-bound [3, 8] is given as “no differences” and the “amount of Aβ42” value [3, 8] is given as “no differences”. The “total secreted sAPP (sAPPα+sAPPβ)” value [3, 8] was “no differences”, the Aβ40 in brain [3, 9] was “concomitant and proportional reduction” and the sAPPα in brain [3, 9] was “significant increase”. For the same molecule, the general health ([3]; 1 mg/kg i.p. daily, 17 weeks) was “no differences in general health”, the “intensity of abdominal contractions after injection” value ([3]; 1 mg/kg i.p. daily, 17 weeks, vs vehicle group) was “somewhat elevated” and the deaths ([3]; 7 weeks, 10 mg/kg daily) was “two deaths”. For the same molecule, the deaths ([3]; 7 weeks, 10 mg/kg weekly) was “one death”, the sAPPα in brain ([3]; 6 months old animals, 7 weeks, 1 mg/kg daily) was “no effect” and the Aβ40 in brain [3, 10] was “increase”. For the same molecule, the sAPPα in brain [3, 10] was “slight increase”, the Aβ40 in brain [3, 11] was “slight decrease” and the sAPPα in brain [3, 11] was “slight increase”. For the same molecule, the “concentration giving significant increases of sAPP secretion” value [4] was 10 µM and the “secretion of sAPPα” value ([5]; AD cell line AG06848, 0.1 nM, three hours of treatment, relative to DMSO) was “no real impact on secretion”.

For `CCCCCC1CC1CC1CC1CCCCCCCC(=O)O` (stereo not shown) [DCP-LA, 2-[(2-pentylcyclopropyl)methyl]cyclopropaneoctanoic acid], the “concentration of maximal effect on PKCε” value (PKCε) is listed as 100 nM.

In the case of `CC1=C[C@]23C(=O)[C@@H](C=C(COC(=O)c4ccccc4)[C@@H](O)[C@]2(O)[C@H]1OC(=O)c1ccccc1)[C@H]1[C@@H](C[C@H]3C)C1(C)C` [Ingenol 3,20-dibenzoate], the Ki (PKC [6]) is listed as 240 nM.

For `C/C=C(/C)C(=O)O[C@H]1C(C)=C[C@]23C(=O)[C@@H](C=C(CO)[C@@H](O)[C@]12O)[C@H]1[C@@H](C[C@H]3C)C1(C)C` [Ingenol-3-angelate], the antitumor activity [7] is given as “possesses antitumor activity”.

In the case of `CC1=CC[C@H](C)C(C)(C)[C@@H]1/C=C/C(C)=C/CC[C@@]1(CO)[C@H](CCCO)/C(=C(/C)C=O)CC[C@]1(C)O` [Iripallidal], the “G150 (concentration required to inhibit growth by 50%)” value (NCI 60 cell line screen) is listed as “micromolar to nanomolar range”.

For `CCCCCCCC(=O)OC1C(=CC(=O)OC)CC2CC(CO)OC(=O)CC(O)CCOC(C(C)(C)C)CC3CCOC(C=CC(C)(C)C1(O)O2)O3` (stereo not shown) [bryolog 3], the Ki (PKC [1]; [12]) is given as 6.5 nM.

For `CCCCCCCC(=O)OC1C(=CC(=O)OC)CC2CC(CO)OC(=O)CC(O)CCOC(c3ccccc3)CC3CCOC(C=CC(C)(C)C1(O)O2)O3` (stereo not shown) [bryolog 4], the Ki (PKC [1]; [12]) is listed as 2.3 nM.

In the case of `CCCCCCCC(=O)OC1C(=CC(=O)OC)CC2CC(CO)OC(=O)CC(O)CCOC(CCCc3ccc(Br)cc3)CC3CCOC(C=CC(C)(C)C1(O)O2)O3` (stereo not shown) [bryolog 5], the Ki (PKC [1]; [12]) is given as 1.9 nM.

For `CCCCCCCCc1ccc2c3c(c[nH]c13)C[C@@H](CO)NC(=O)[C@H](C(C)C)N2C` [octylindolactam V, Octylindolactam V], the EC50 (protein kinase C) is listed as 29 nM.

In the case of `CN[C@@H]1C[C@H]2O[C@@](C)([C@@H]1OC)n1c3ccccc3c3c4c(c5c6ccccc6n2c5c31)C(=O)NC4` [staurosporin], the “effect of pre-treatment on bryostatin-induced sAPPα secretion” value ([5]; 100 nM pre-treatment, bryostatin 0.1 nM) is reported as “abolished the effects of 0.1 nM bryostatin; also recorded: completely abolished the effect”.
